Consider 70 compounds from ChEMBL document CHEMBL4421722, “Inhibitors of protein prenyltransferases” (2013).

This assay is filed under the species Rattus norvegicus. As to the kind of experiment: Inhibition of rat recombinant geranylgeranyltransferase type I expressed in Escherichia coli assessed as residual enzyme activity for geranylgeranylation of K-Ras4B at 50 uM incubated for 30 mins in presence of [3H]GGPP by scintillation counting assay relative to control.
Regarding `CCCS[C@@H]1C[C@@H](c2cccc(OC)c2)N(S(=O)(=O)c2ccc(C)cc2)C[C@H]1C(=O)O`, the Activity was found to be 73.9%.

Take `Cc1ccc(S(=O)(=O)N2[C@@H](c3ccc(C(C)(C)C)cc3)C(C(=O)O)=CC[C@H]2c2cccs2)cc1`: the Activity was determined as 68.1%.

In the case of `COc1ccc([C@@H]2C[C@@H](Sc3ccccc3)[C@H](C(=O)O)CN2S(=O)(=O)c2ccc(C)cc2)cc1OC`, the Activity came to 112%.

Turning to `Cc1ccc(S(=O)(=O)N2[C@@H](c3cccc(Br)c3)C(C(=O)O)=CC[C@H]2c2cccc(F)c2)cc1`, the Activity stood at 67.1%.

Turning to `COc1ccc([C@@H]2C[C@@H](Sc3ccc(C)cc3)[C@H](C(=O)O)CN2S(=O)(=O)c2ccc(C)cc2)cc1OC`, the Activity worked out at 105%.

With `Cc1ccc(S(=O)(=O)N2[C@@H](c3ccc(Cl)cc3)C(C(=O)O)=CC[C@H]2c2cccc(C)c2)cc1`, the Activity worked out at 74.7%.

Take `Cc1ccc(S(=O)(=O)N2C[C@@H](C(=O)O)[C@H](SCCC(C)C)C[C@H]2c2ccc3c(c2)OCO3)cc1`: the Activity turned out to be 77.4%.

Take `Cc1ccc(S(=O)(=O)N2[C@@H](c3ccc(Br)cc3)C(C(=O)O)=CC[C@H]2c2ccc(F)cc2)cc1`: the Activity worked out at 62.6%.

`COc1ccc([C@@H]2C[C@@H](SC3CCCC3)[C@H](C(=O)O)CN2S(=O)(=O)c2ccc(C)cc2)cc1`: the Activity was 91.5%.

In the case of `Cc1ccc([C@@H]2C[C@@H](SC3CCCC3)[C@H](C(=O)O)CN2S(=O)(=O)c2ccc(C)cc2)cc1`, the Activity stood at 87.8%.

As to `COc1ccc([C@@H]2CC=C(C(=O)O)[C@H](c3ccc(Cl)cc3)N2S(=O)(=O)c2ccccc2)cc1`, the Activity came out at 86.8%.

`Cc1ccc(S(=O)(=O)N2[C@@H](c3ccc(C(C)(C)C)cc3)C(C(=O)O)=CC[C@H]2c2cccc(Cl)c2)cc1`: the Activity came out at 78.8%.

Consider `Cc1ccc([C@@H]2CC=C(C(=O)O)[C@H](c3cccc(Cl)c3)N2S(C)(=O)=O)cc1`, for which the Activity came to 64.4%.

Take `COC(=O)c1ccccc1S(=O)(=O)N1[C@@H](c2cccc(Br)c2)C(C(=O)O)=CC[C@H]1c1ccc(C)cc1`: the Activity was 64.9%.

Turning to `CCc1ccc([C@@H]2C[C@@H](SCc3ccc(C(C)(C)C)cc3)[C@H](C(=O)O)CN2S(=O)(=O)c2ccc(C)cc2)cc1`, the Activity stood at 64.4%.

Take `COc1ccc([C@@H]2CC=C(C(=O)O)[C@H](c3cccc(C)c3)N2S(=O)(=O)c2ccc(C)cc2)cc1OC`: the Activity is 76%.

For the compound `Cc1ccc([C@@H]2CC=C(C(=O)O)[C@H](c3cccc(Br)c3)N2S(=O)(=O)c2ccccc2)cc1`, the Activity stood at 67.2%.

With `CCCS[C@@H]1C[C@@H](c2ccc(Cl)cc2)N(S(=O)(=O)c2ccccc2C)C[C@H]1C(=O)O`, the Activity turned out to be 53.3%.

Consider `COc1ccc([C@@H]2CC=C(C(=O)O)[C@H](c3ccc(C)cc3)N2S(=O)(=O)c2ccccc2C)cc1`, for which the Activity was 86%.

For `Cc1ccc([C@@H]2CC=C(C(=O)O)[C@H](c3ccc(Br)cc3)N2S(=O)(=O)c2ccccc2)cc1`, the Activity turned out to be 78.4%.

With `CCc1ccc([C@@H]2C[C@@H](Sc3ccc(C)cc3)[C@H](C(=O)O)CN2S(=O)(=O)c2ccc(C)cc2)cc1`, the Activity came to 85%.

`COc1ccc(S[C@@H]2C[C@@H](c3ccc(Cl)cc3)N(S(=O)(=O)c3ccccc3C)C[C@H]2C(=O)O)cc1`: the Activity amounted to 85.6%.

Turning to `Cc1ccc([C@@H]2C[C@@H](SCC(C)C)[C@H](C(=O)O)CN2S(=O)(=O)c2ccc(C)cc2)cc1`, the Activity is 83.5%.

Take `Cc1ccc(S(=O)(=O)N2[C@@H](c3cccc(C)c3)C(C(=O)O)=CC[C@H]2c2cccc(F)c2)cc1`: the Activity was determined as 60.5%.

As to `Cc1ccc([C@@H]2CC=C(C(=O)O)[C@H](c3ccc(Cl)cc3)N2S(=O)(=O)c2ccccc2C)cc1`, the Activity turned out to be 86.8%.

Turning to `COc1ccc([C@@H]2CC=C(C(=O)O)[C@H](c3ccc(C)cc3)N2S(=O)(=O)c2ccc(C)cc2)cc1OC`, the Activity worked out at 89.3%.

For `Cc1ccc(S(=O)(=O)N2[C@@H](c3ccc(F)cc3)C(C(=O)O)=CC[C@H]2c2cccc(Cl)c2)cc1`, the Activity turned out to be 60.2%.

Regarding `Cc1ccc(S(=O)(=O)N2[C@@H](c3ccc(Br)cc3)C(C(=O)O)=CC[C@H]2c2cccs2)cc1`, the Activity came out at 71.2%.

`CCCS[C@@H]1C[C@@H](c2cccc(Br)c2)N(S(=O)(=O)c2ccc(C)cc2)C[C@H]1C(=O)O`: the Activity came to 88.5%.

Turning to `CS(=O)(=O)N1[C@@H](c2cccc(F)c2)C(C(=O)O)=CC[C@H]1c1ccc(Cl)cc1`, the Activity amounted to 69.9%.

`Cc1ccc([C@@H]2C[C@@H](SCc3ccc(C(C)(C)C)cc3)[C@H](C(=O)O)CN2S(=O)(=O)c2ccccc2)cc1`: the Activity was 68.1%.

With `Cc1ccc([C@H]2C(C(=O)O)=CC[C@@H](c3ccc(C(C)C)cc3)N2S(=O)(=O)c2ccc(C)cc2)cc1`, the Activity amounted to 63.7%.

Turning to `C=CCS[C@@H]1C[C@@H](c2ccccc2)N(S(=O)(=O)c2ccc(C)cc2)C[C@H]1C(=O)O`, the Activity is 98.9%.

For the compound `COc1ccc([C@@H]2C[C@@H](SC3CCCC3)[C@H](C(=O)O)CN2S(=O)(=O)c2ccccc2C)cc1`, the Activity is 98.2%.

Consider `Cc1ccc([C@@H]2C[C@@H](SCc3ccc(C(C)(C)C)cc3)[C@H](C(=O)O)CN2S(=O)(=O)c2ccc(Cl)cc2)cc1`, for which the Activity worked out at 62%.

As to `COc1ccc([C@@H]2CC=C(C(C)=O)CN2S(=O)(=O)c2ccc(C)cc2)cc1OC`, the Activity is 83.8%.

Take `COc1ccc([C@@H]2CC=C(C(=O)O)[C@H](c3cccc(Br)c3)N2S(=O)(=O)c2ccc(C)cc2)cc1`: the Activity amounted to 84.5%.

In the case of `CCCCCS[C@@H]1C[C@@H](c2ccc(OC)cc2)N(S(=O)(=O)c2ccccc2C)C[C@H]1C(=O)O`, the Activity turned out to be 67.1%.

As for `COc1cccc([C@@H]2CC=C(C(=O)O)[C@H](c3cccc(F)c3)N2S(=O)(=O)c2ccc(C)cc2)c1`, the Activity amounted to 82.9%.

For the compound `Cc1ccc([C@@H]2CC=C(C(=O)O)[C@H](c3cccc(F)c3)N2S(=O)(=O)c2ccc(Cl)cc2)cc1`, the Activity came to 54.5%.

As to `Cc1ccc(S(=O)(=O)N2[C@@H](c3cccc(F)c3)C(C(=O)O)=CC[C@H]2c2cccs2)cc1`, the Activity was 81.8%.

For `CCCCS[C@@H]1C[C@@H](c2ccc3c(c2)OCO3)N(S(=O)(=O)c2ccc(C)cc2)C[C@H]1C(=O)O`, the Activity was 80.4%.

With `Cc1ccc(S[C@@H]2C[C@@H](c3ccccc3F)N(S(=O)(=O)c3ccc(C)cc3)C[C@H]2C(=O)O)cc1`, the Activity was 80.4%.

In the case of `CCCCS[C@@H]1C[C@@H](c2ccc(OCC)cc2)N(S(=O)(=O)c2ccc(C)cc2)C[C@H]1C(=O)O`, the Activity was 66%.

For `O=C(O)C1=CC[C@@H](c2ccc(Cl)cc2)N(S(=O)(=O)c2ccc(Cl)cc2)[C@H]1c1ccc(Cl)cc1`, the Activity stood at 57.7%.

With `CCCS[C@@H]1C[C@@H](c2ccccc2)N(S(=O)(=O)c2ccc(C)cc2)C[C@H]1C(=O)O`, the Activity amounted to 75.7%.

Turning to `Cc1ccc(S(=O)(=O)N2C[C@@H](C(=O)O)[C@H](SC3CCCC3)C[C@H]2c2ccc(Cl)cc2)cc1`, the Activity amounted to 94.7%.

On to `Cc1ccc(S(=O)(=O)N2[C@@H](c3ccc(Cl)cc3)C(C(=O)O)=CC[C@H]2c2cccc(Br)c2)cc1`, for which the Activity was determined as 68.1%.

Take `Cc1ccc(S[C@@H]2C[C@@H](c3ccc(C)cc3)N(S(=O)(=O)c3ccc(C)cc3)C[C@H]2C(=O)O)cc1`: the Activity was 62.4%.

With `CCOc1ccc([C@@H]2CC=C(C(=O)O)[C@H](c3cccc(Br)c3)N2S(=O)(=O)c2ccc(C)cc2)cc1`, the Activity came out at 78.4%.

On to `O=C(O)C1=CC[C@@H](c2ccc(Cl)cc2)N(S(=O)(=O)c2ccc(Cl)cc2)[C@H]1c1ccc(Br)cc1`, for which the Activity was 32.6%.

With `CS(=O)(=O)N1[C@@H](c2ccc(F)cc2)C(C(=O)O)=CC[C@H]1c1ccc(Cl)cc1`, the Activity was determined as 50.2%.

As to `Cc1ccc(S(=O)(=O)N2[C@@H](c3cccc(C)c3)C(C(=O)O)=CC[C@H]2c2cccc(Cl)c2)cc1`, the Activity was 46.9%.

`COc1cccc([C@@H]2C[C@@H](Sc3ccc(Cl)cc3)[C@H](C(=O)O)CN2S(=O)(=O)c2ccc(C)cc2)c1`: the Activity was 60.3%.

`CCCCS[C@@H]1C[C@@H](c2ccc(C)cc2)N(S(=O)(=O)c2ccccc2)C[C@H]1C(=O)O`: the Activity was 72.6%.

Turning to `CCCS[C@@H]1C[C@@H](c2cccc(Cl)c2)N(S(=O)(=O)c2ccc(C)cc2)C[C@H]1C(=O)O`, the Activity is 78.8%.

For `Cc1ccc([C@@H]2CC=C(C(=O)O)[C@H](c3ccc(F)cc3)N2S(=O)(=O)c2ccccc2C)cc1`, the Activity came out at 50.9%.

Regarding `CCc1ccc([C@@H]2C[C@@H](Sc3ccccc3)[C@H](C(=O)O)CN2S(=O)(=O)c2ccc(C)cc2)cc1`, the Activity was 45.7%.

`COc1ccc([C@@H]2C[C@@H](SCC(C)C)[C@H](C(=O)O)CN2S(=O)(=O)c2ccc(C)cc2)cc1OC`: the Activity came to 91.6%.

Regarding `COc1cccc([C@@H]2CC=C(C(=O)O)[C@H](c3ccc(C(C)(C)C)cc3)N2S(=O)(=O)c2ccc(C)cc2)c1`, the Activity was 95.8%.

For the compound `Cc1ccc(S(=O)(=O)N2[C@@H](c3cccc(F)c3)C(C(=O)O)=CC[C@H]2c2ccc3c(c2)OCO3)cc1`, the Activity was found to be 90.9%.

On to `COc1ccc(S[C@@H]2C[C@@H](c3ccc(OC)cc3)N(S(=O)(=O)c3ccccc3)C[C@H]2C(=O)O)cc1`, for which the Activity amounted to 90.5%.

On to `Cc1ccc([C@@H]2C[C@@H](SCc3ccc(C(C)(C)C)cc3)[C@H](C(=O)O)CN2S(=O)(=O)c2ccccc2C)cc1`, for which the Activity was found to be 69.5%.

For `CCCS[C@@H]1C[C@@H](c2ccc(OCC)cc2)N(S(=O)(=O)c2ccc(C)cc2)C[C@H]1C(=O)O`, the Activity stood at 84.9%.

As for `CCCCCCS[C@@H]1C[C@@H](c2cccc(OC)c2)N(S(=O)(=O)c2ccc(C)cc2)C[C@H]1C(=O)O`, the Activity turned out to be 80.5%.

For `CS(=O)(=O)N1[C@@H](c2cccc(Br)c2)C(C(=O)O)=CC[C@H]1c1ccccc1`, the Activity turned out to be 63.5%.

In the case of `CCCCS[C@@H]1C[C@@H](c2ccc(OC)cc2)N(S(=O)(=O)c2ccccc2)C[C@H]1C(=O)O`, the Activity stood at 83.1%.

Turning to `Cc1ccc([C@H]2C(C(=O)O)=CC[C@@H](c3ccccc3)N2S(=O)(=O)c2ccc(C)cc2)cc1`, the Activity amounted to 87.5%.

Regarding `COc1ccc([C@@H]2CC=C(C(=O)O)[C@H](c3cccc(Cl)c3)N2S(=O)(=O)c2ccccc2)cc1`, the Activity came out at 56.1%.

As to `COc1ccc([C@@H]2C[C@@H](SCCc3ccccc3)[C@H](C(=O)O)CN2S(=O)(=O)c2ccc(C)cc2)cc1OC`, the Activity worked out at 44.1%.
